Results as given in patent US20160220602A1, “USE OF CHINESE MEDICINE PREPARATION IN PREPARING DRUG FOR PREVENTING AND/OR TREATING CROHN'S DISEASE” (TASLY PHARMACEUTICAL GROUP CO., LTD., priority 2013, published 2016).

Legend:
Type in all cases: in vivo, SD rats
[1] = test system: TNBS-induced SD rat Crohn's disease model; assay: DAI score in TNBS-caused Crohn's disease rat model; details: TNBS model rats, 100 mg/kg
Experimental: Grouping: experiment was carried out by using two ways of intracolonic and intragastric administrations. […] There were 10 rats each group. Method for establishing rat model: referring to Morris method, TNBS was used to induce the SD rat Crohn's disease model (abbreviated as “TNBS model”). 24 hours before modeling, the SD rats were fasted but water was given. […] The rats of blank control group were normally fed with free access to water and the same volume of normal saline was given in the same administration routes by referring to the dosage regime of aforementioned treatment groups. The rats of model group were administrated with the same volume of normal saline in the same administration routes. […] (1) General Indices: weight change and stool (e.g. fecal occult blood, bloody stool and diarrhea) was observed every day to calculate DAI (disease activity index) score. DAI score=(weight loss percentage+stool character fraction+hematochezia fraction)/3 [table]

[2] = test system: IL-4; assay: Serum IL-4 by ELISA, TNBS model rats; details: 100 mg/kg once per day, 21 days
Experimental: (§1) Grouping: experiment was carried out by using two ways of intracolonic and intragastric administrations. […] There were 10 rats each group. Method for establishing rat model: referring to Morris method, TNBS was used to induce the SD rat Crohn's disease model (abbreviated as “TNBS model”). 24 hours before modeling, the SD rats were fasted but water was given. […] The rats of blank control group were normally fed with free access to water and the same volume of normal saline was given in the same administration routes by referring to the dosage regime of aforementioned treatment groups. The rats of model group were administrated with the same volume of normal saline in the same administration routes. […] (2) Serum indices: after final administration, the testing rats were fasted but given water. 24 hours later, blood was gained from abdominal aorta. Serum IFN-γ, IL-1, IL-4, IL-10 and Gln in intestinal mucosa were determined by enzyme-linked immunosorbent assay (ELISA) in rats.

[3] = test system: IL-1; assay: Serum IL-1 by ELISA, TNBS model rats; details: 100 mg/kg once per day, 21 days
Experimental: as §1

[4] = test system: Gln in intestinal mucosa; assay: Gln in intestinal mucosa by ELISA, OXZ model rats; details: 100 mg/kg once per day, 11 days
Experimental: Grouping: the experiment was carried out by using two ways of intracolonic and intragastric administration. […] There were 10 rats each group. Method for establishing rat model: referring to the Heller method, OXZ was used to induce the SD rat Crohn's disease model (abbreviated as “OXZ model”). Neck and back skin of rats were shaved (2 cm×2 cm). Ethanol was used to prepare 5% (w/v) OXZ solution, and 0.3 ml resultant OXZ solution was dripped on the skin of rats. After the solution was air-dried naturally, skin allergy occurred in rats. The sensitized rats were adaptively raised for 5 days, […] anesthetized by intraperitoneal injection of pentobarbital sodium. […] After completion, the rats were inverted by lifting tails for 60s to make the solution totally absorbed. […] If the rats manifested dark hair color, body weight loss, poor appetite, lassitude, watery stool or diarrhea, the model establishment was success. Administration method: after successful model establishment by OXZ, the drug was given to rats. The TCM preparation k saline solutions at corresponding dose were administered to the groups of preparation k of all doses and the […] saline solution, a positive drug, administrated to the positive control group. […] Serum IFN-γ, IL-4, and Gln in intestinal mucosa were determined by ELISA in rats.

[5] = test system: IFN-γ; assay: Serum IFN-γ by ELISA, TNBS model rats; details: 100 mg/kg once per day, 21 days
Experimental: as §1

[6] = test system: Gln in intestinal mucosa; assay: Gln in intestinal mucosa by ELISA, TNBS model rats; details: 100 mg/kg once per day, 21 days
Experimental: as §1

## Nc1ccc(O)c(C(=O)O)c1 [mesalamine, Mesalamine]
[1]; intracolonic, 0th day (1 day before model established)
  DAI score (Mean ± SD): 0.000 ± 0.000
[1]; intracolonic, 2nd day
  DAI score (Mean ± SD): 1.867 ± 0.571
[1]; intracolonic, 3rd day
  DAI score (Mean ± SD): 2.100 ± 0.754
[1]; intracolonic, 4th day
  DAI score (Mean ± SD): 2.067 ± 0.7217
[1]; intracolonic, 5th day
  DAI score (Mean ± SD): 1.733 ± 0.562
[1]; intracolonic, 6th day
  DAI score (Mean ± SD): 1.367 ± 0.532
[1]; intracolonic, 7th day
  DAI score (Mean ± SD): 1.267 ± 0.467
[1]; intracolonic, 8th day
  DAI score (Mean ± SD): 1.167 ± 0.360
[1]; intracolonic, 9th day
  DAI score (Mean ± SD): 1.067 ± 0.306
[1]; intracolonic, 10th day
  DAI score (Mean ± SD): 1.000 ± 0.314
[1]; intracolonic, 11th day
  DAI score (Mean ± SD): 0.933 ± 0.211
[1]; intracolonic, 12th day
  DAI score (Mean ± SD): 0.833 ± 0.236
[1]; intracolonic, 13th day
  DAI score (Mean ± SD): 0.833 ± 0.236
[1]; intracolonic, 14th day
  DAI score (Mean ± SD): 0.767 ± 0.353
[1]; intracolonic, 15th day
  DAI score (Mean ± SD): 0.733 ± 0.344
[1]; intragastric, 0th day (1 day before model established)
  DAI score (Mean ± SD): 0.000 ± 0.000
[1]; intragastric, 2nd day
  DAI score (Mean ± SD): 1.519 ± 0.412
[1]; intragastric, 3rd day
  DAI score (Mean ± SD): 1.481 ± 0.380
[1]; intragastric, 4th day
  DAI score (Mean ± SD): 1.333 ± 0.333
[1]; intragastric, 5th day
  DAI score (Mean ± SD): 1.111 ± 0.333
[1]; intragastric, 6th day
  DAI score (Mean ± SD): 1.037 ± 0.261
[1]; intragastric, 7th day
  DAI score (Mean ± SD): 1.000 ± 0.236
[1]; intragastric, 8th day
  DAI score (Mean ± SD): 0.963 ± 0.309
[1]; intragastric, 9th day
  DAI score (Mean ± SD): 0.889 ± 0.289
[1]; intragastric, 10th day
  DAI score (Mean ± SD): 0.741 ± 0.324
[1]; intragastric, 15th day
  DAI score (Mean ± SD): 0.481 ± 0.242
[1]; intragastric, 16th day
  DAI score (Mean ± SD): 0.481 ± 0.242
[1]; intragastric, 18th day
  DAI score (Mean ± SD): 0.333 ± 0.236
[1]; intragastric, 19th day
  DAI score (Mean ± SD): 0.259 ± 0.147
[1]; intragastric, 20th day
  DAI score (Mean ± SD): 0.222 ± 0.167
[2]; intracolonic
  IL-4 serum content (Mean ± SD): 96.80 ± 27.51 pg/mL
[2]; intragastric
  IL-4 serum content (Mean ± SD): 75.80 ± 17.47 pg/mL
[3]; intracolonic
  IL-1 serum content (Mean ± SD): 167.66 ± 26.95 pg/mL
[3]; intragastric
  IL-1 serum content (Mean ± SD): 154.59 ± 39.98 pg/mL
[4]; intracolonic
  Gln in intestinal mucosa (Mean ± SD): 124.06 ± 24.40 µmol/L
[4]; intragastric
  Gln in intestinal mucosa (Mean ± SD): 132.59 ± 41.74 µmol/L
[5]; intracolonic
  IFN-γ serum content (Mean ± SD): 84.51 ± 19.65 pg/mL
[5]; intragastric
  IFN-γ serum content (Mean ± SD): 93.88 ± 23.67 pg/mL
[6]; intracolonic
  Gln in intestinal mucosa (Mean ± SD): 146.36 ± 28.11 µmol/L
[6]; intragastric
  Gln in intestinal mucosa (Mean ± SD): 158.74 ± 41.35 µmol/L
